Assay results published in ChEMBL document CHEMBL1201862, “PubChem BioAssay data set” (2004).
Counter-ions that a name gives are not always drawn.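 48-hour exposure; five concentrations; linearly interpolated endpoints. Here, GI50 denotes the concentration required for 50% inhibition of growth.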 The source made the active and inactive calls. No stated cut-off is given here; in the data, active = GI50 up to about 1.1 µM and inactive = higher.

How the values were obtained:
Assay in all cases: DTP human tumour cell line panel, 48 h
Hs-578T = system: Hs-578T
SK-MEL-5 = system: SK-MEL-5
UACC-62 = system: UACC-62
SF-268 = system: SF-268
MCF7 = system: MCF7
MOLT-4 = system: MOLT-4
SN12C = system: SN12C
SK-OV-3 = system: SK-OV-3
SF-295 = system: SF-295
786-0 = system: 786-0
SW-620 = system: SW-620
CAKI-1 = system: CAKI-1
A549 = system: A549
RXF 393 = system: RXF 393
CCRF-CEM = system: CCRF-CEM
HCT-15 = system: HCT-15
HT-29 = system: HT-29
OVCAR-8 = system: OVCAR-8
OVCAR-5 = system: OVCAR-5
LXFL 529 = system: LXFL 529

| SMILES | GI50 (Hs-578T) | GI50 (SK-MEL-5) | GI50 (UACC-62) | GI50 (SF-268) | GI50 (MCF7) | GI50 (MOLT-4) | GI50 (SN12C) | GI50 (SK-OV-3) | GI50 (SF-295) | GI50 (786-0) | GI50 (SW-620) | GI50 (CAKI-1) | GI50 (A549) | GI50 (RXF 393) | GI50 (CCRF-CEM) | GI50 (HCT-15) | GI50 (HT-29) | GI50 (OVCAR-8) | GI50 (OVCAR-5) | GI50 (LXFL 529) |
| --- | --- | --- | --- | --- | --- | --- | --- | --- | --- | --- | --- | --- | --- | --- | --- | --- | --- | --- | --- | --- |
| O=C(Oc1ccc2c(c1)CN(Cc1ccccc1)CO2)c1ccccc1 | 23.7 µM (inactive) | 17.1 µM (inactive) | 16.8 µM (inactive) | 17.3 µM (inactive) | 16.9 µM (inactive) | 10.7 µM (inactive) | 17.1 µM (inactive) | 16.6 µM (inactive) | 17.8 µM (inactive) | 16.9 µM (inactive) | 22.8 µM (inactive) | 20 µM (inactive) | 19.8 µM (inactive) | 15.2 µM (inactive) | 10.6 µM (inactive) | 16.9 µM | 18.5 µM (inactive) | 16.7 µM (inactive) | 18.3 µM (inactive) | – |
| CCOC(=O)C1=C(C)CC2C(=O)OC(=O)C2C1(C)C (stereo unspecified) | – | > 100 µM (inactive) | – | > 100 µM (inactive) | – | > 100 µM (inactive) | > 100 µM (inactive) | > 100 µM (inactive) | > 100 µM (inactive) | > 100 µM (inactive) | > 100 µM (inactive) | – | > 100 µM (inactive) | > 100 µM (inactive) | > 100 µM (inactive) | > 100 µM | > 100 µM (inactive) | > 100 µM (inactive) | > 100 µM (inactive) | > 100 µM (inactive) |
| Cn1c(=O)[nH]c2nccnc2c1=O | > 10 µM (inactive) | > 10 µM (inactive) | > 10 µM (inactive) | > 10 µM (inactive) | > 10 µM (inactive) | > 10 µM (inactive) | > 10 µM (inactive) | > 10 µM (inactive) | > 10 µM (inactive) | > 10 µM (inactive) | > 10 µM (inactive) | > 10 µM (inactive) | > 10 µM (inactive) | > 10 µM (inactive) | > 10 µM (inactive) | > 10 µM | > 10 µM (inactive) | > 10 µM (inactive) | > 10 µM (inactive) | – |
| Nn1c(-c2cccc(Cl)c2)nc2ccccc2c1=O | – | > 100 µM (inactive) | > 100 µM (inactive) | > 100 µM (inactive) | – | 60.1 µM (inactive) | > 100 µM (inactive) | > 100 µM (inactive) | > 100 µM (inactive) | > 100 µM (inactive) | > 100 µM (inactive) | > 100 µM (inactive) | > 100 µM (inactive) | – | 51.5 µM (inactive) | > 100 µM | > 100 µM (inactive) | > 100 µM (inactive) | > 100 µM (inactive) | > 100 µM (inactive) |
| CSc1nc(Cl)c(Br)c(Sc2nc(N)nc3nc[nH]c23)n1 | – | 12.5 µM (inactive) | 3.52 µM (inactive) | 3.44 µM (inactive) | – | 4.2 µM (inactive) | – | – | 4.72 µM (inactive) | 3.27 µM (inactive) | 7.43 µM (inactive) | 3.42 µM (inactive) | 19.5 µM (inactive) | – | 2.77 µM (inactive) | 5.66 µM | 9.86 µM (inactive) | 11 µM (inactive) | 11.8 µM (inactive) | 5.79 µM (inactive) |
| Nc1ccc(C(=O)CC2(O)C(=O)Nc3ccccc32)cc1 (stereo unspecified) | – | > 100 µM (inactive) | > 100 µM (inactive) | > 100 µM (inactive) | – | > 100 µM (inactive) | > 100 µM (inactive) | > 100 µM (inactive) | > 100 µM (inactive) | > 100 µM (inactive) | > 100 µM (inactive) | > 100 µM (inactive) | > 100 µM (inactive) | > 100 µM (inactive) | – | > 100 µM | > 100 µM (inactive) | > 100 µM (inactive) | > 100 µM (inactive) | > 100 µM (inactive) |
| Cn1nnnc1SC(F)(F)c1nc2ccccc2o1 | > 100 µM (inactive) | > 100 µM (inactive) | > 100 µM (inactive) | > 100 µM (inactive) | > 100 µM (inactive) | 24.1 µM (inactive) | > 100 µM (inactive) | > 100 µM (inactive) | > 100 µM (inactive) | > 100 µM (inactive) | > 100 µM (inactive) | > 100 µM (inactive) | > 100 µM (inactive) | > 100 µM (inactive) | 25.1 µM (inactive) | > 100 µM | > 100 µM (inactive) | > 100 µM (inactive) | > 100 µM (inactive) | – |
| Oc1ccc(Cc2nccc3cc(O)c(O)cc23)cc1O | > 100 µM (inactive) | 28.8 µM (inactive) | 33.4 µM (inactive) | 51.9 µM (inactive) | 21.5 µM (inactive) | 22.3 µM (inactive) | 29.9 µM (inactive) | 66.8 µM (inactive) | 37.2 µM (inactive) | 32.1 µM (inactive) | 36.1 µM (inactive) | 58.3 µM (inactive) | 54.3 µM (inactive) | 37.6 µM (inactive) | 17.9 µM (inactive) | 57.7 µM | 53.5 µM (inactive) | 45.7 µM (inactive) | 48.9 µM (inactive) | – |
| COc1cc2nc3n(c2cc1OC)C(O)c1c(Cl)nc(SC)nc1S3 (stereo unspecified) | 2.77 µM (inactive) | 1.92 µM (inactive) | 2.19 µM (inactive) | 3.78 µM (inactive) | 3.36 µM (inactive) | 1.98 µM (inactive) | 3.86 µM (inactive) | 3.59 µM (inactive) | 7.4 µM (inactive) | 2.35 µM (inactive) | 3.33 µM (inactive) | 7.24 µM (inactive) | 5.08 µM (inactive) | 2.3 µM (inactive) | 1.17 µM (inactive) | 2.64 µM | 3.22 µM (inactive) | 2.59 µM (inactive) | 16.6 µM (inactive) | – |
| COc1ccc2c3c1OC1C(=O)C=CC4(CC2)N(C)CCC314 (stereo unspecified) | 19.3 µM (inactive) | 10.4 µM (inactive) | > 10 µM (inactive) | 19.3 µM (inactive) | 20.2 µM (inactive) | 12.8 µM (inactive) | 21.4 µM (inactive) | 36.4 µM (inactive) | 38 µM (inactive) | 17.2 µM (inactive) | 14.2 µM (inactive) | 20.1 µM (inactive) | 22.8 µM (inactive) | 25.9 µM (inactive) | 12.7 µM (inactive) | 18.9 µM | 28.6 µM (inactive) | 22.5 µM (inactive) | 29.5 µM (inactive) | – |
| CCCCCCCCCCCCCCNCC(OCC)OCC | – | 13.9 µM (inactive) | 18.1 µM (inactive) | 17.3 µM (inactive) | – | – | 13.7 µM (inactive) | 18.6 µM (inactive) | 16.7 µM (inactive) | 16.9 µM (inactive) | 15.3 µM (inactive) | – | 19.4 µM (inactive) | 10.2 µM (inactive) | 4.84 µM (inactive) | 8.47 µM | 2.86 µM (inactive) | 18.5 µM (inactive) | 15.3 µM (inactive) | 15.1 µM (inactive) |
| CC1=C2[C@@H](c3ccccc3)C3C=CC2(c2ccccc23)N(C(=O)Nc2cccc3ccccc23)C1=O (stereo partly specified) | – | > 100 µM (inactive) | > 100 µM (inactive) | > 100 µM (inactive) | – | > 100 µM (inactive) | > 100 µM (inactive) | > 100 µM (inactive) | > 100 µM (inactive) | > 100 µM (inactive) | > 100 µM (inactive) | > 100 µM (inactive) | > 100 µM (inactive) | – | > 100 µM (inactive) | > 100 µM | – | > 100 µM (inactive) | > 100 µM (inactive) | > 100 µM (inactive) |
| N#C/C(=C1\N=NC(N)=C(c2ccc(Cl)cc2)C1=O)c1ccc(Cl)cc1 | – | – | > 100 µM (inactive) | > 100 µM (inactive) | – | > 100 µM (inactive) | > 100 µM (inactive) | > 100 µM (inactive) | > 100 µM (inactive) | > 100 µM (inactive) | > 100 µM (inactive) | > 100 µM (inactive) | > 100 µM (inactive) | > 100 µM (inactive) | > 100 µM (inactive) | – | > 100 µM (inactive) | > 100 µM (inactive) | > 100 µM (inactive) | > 100 µM (inactive) |
| CCC(CCCN)Nc1cc(OC)cc2c(C)ccnc12 (stereo unspecified) | 13 µM (inactive) | 17.8 µM (inactive) | > 10 µM (inactive) | 15.3 µM (inactive) | 15 µM (inactive) | 15.8 µM (inactive) | 21.2 µM (inactive) | 13.6 µM (inactive) | 17.3 µM (inactive) | 15.4 µM (inactive) | 20.8 µM (inactive) | 15.5 µM (inactive) | 15.6 µM (inactive) | 13.8 µM (inactive) | 18.4 µM (inactive) | 22.9 µM | 14.3 µM (inactive) | 21.1 µM (inactive) | 17.7 µM (inactive) | – |
| CC(NC(C)(C)C)C(=O)c1cccc(Cl)c1 (stereo unspecified) [BUPROPION HYDROCHLORIDE] | – | > 100 µM (inactive) | > 100 µM (inactive) | > 100 µM (inactive) | – | > 100 µM (inactive) | > 100 µM (inactive) | > 100 µM (inactive) | > 100 µM (inactive) | > 100 µM (inactive) | > 100 µM (inactive) | > 100 µM (inactive) | > 100 µM (inactive) | > 100 µM (inactive) | > 100 µM (inactive) | – | > 100 µM (inactive) | > 100 µM (inactive) | – | > 100 µM (inactive) |
| COC(=O)CC1(O)C=CC(=O)C=C1 [JACARANONE] | 8.55 µM (inactive) | 3.29 µM (inactive) | 2.13 µM (inactive) | 3.18 µM (inactive) | 2.97 µM (inactive) | 1.05 µM (active) | 9.31 µM (inactive) | 14.1 µM (inactive) | 5.13 µM (inactive) | 2.88 µM (inactive) | 4.76 µM (inactive) | 3.83 µM (inactive) | 8.67 µM (inactive) | 3.36 µM (inactive) | 1.99 µM (inactive) | 3.01 µM | 6.24 µM (inactive) | 3.4 µM (inactive) | 8.99 µM (inactive) | – |
